Assay results published in PubChem BioAssay AID192 (DTP/NCI, 2004).
Where “and” joins values, the source holds several entries; their conditions need not be identical. Equal entries are not always repeated. Inconclusive results and toxic doses are left out. The calls were made as follows: active = survival T/C of 150% or more; inactive = T/C below 125% in these data.

System: BDF1 mice, B16 melanoma ip, median survival T/C
Assay: NCI In Vivo Anticancer Drug Screen. Data for tumor model B16 Melanoma (intraperitoneal) in B6D2F1 (BDF1) mice
Conditions: endpoint: median survival time, higher = longer survival
Method in brief: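 Survival or tumor size is measured after treatment of tumor-bearing mice and normalised to the vehicle-treated control group.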

[1] = dose: 6.25 mg/kg/injection, schedule: Q01DX009 (ip), vehicle: Klucel (hydroxypropylcellulose) (HPC)
[2] = dose: 12.5 mg/kg/injection, schedule: Q01DX009 (ip), vehicle: Klucel (hydroxypropylcellulose) (HPC)
[3] = dose: 12.5 mg/kg/injection, schedule: Q01DX009 (ip), vehicle: saline
[4] = dose: 25.0 mg/kg/injection, schedule: Q01DX009 (ip), vehicle: saline
[5] = dose: 50.0 mg/kg/injection, schedule: Q01DX009 (ip), vehicle: saline
[6] = dose: 100.0 mg/kg/injection, schedule: Q01DX009 (ip), vehicle: saline
[7] = dose: 200.0 mg/kg/injection, schedule: Q01DX009 (ip), vehicle: saline
[8] = dose: 400.0 mg/kg/injection, schedule: Q01DX009 (ip), vehicle: saline
[9] = dose: 5.0 mg/kg/injection, schedule: Q01DX009 (ip), vehicle: Klucel (hydroxypropylcellulose) (HPC)
[10] = dose: 10.0 mg/kg/injection, schedule: Q01DX009 (ip), vehicle: Klucel (hydroxypropylcellulose) (HPC)
[11] = dose: 50.0 mg/kg/injection, schedule: Q01DX009 (ip), vehicle: saline with Tween-80
[12] = dose: 100.0 mg/kg/injection, schedule: Q01DX009 (ip), vehicle: saline with Tween-80
[13] = dose: 100.0 mg/kg/injection, schedule: Q01DX009 (ip), vehicle: Klucel (hydroxypropylcellulose) (HPC)
[14] = dose: 200.0 mg/kg/injection, schedule: Q01DX009 (ip), vehicle: Klucel (hydroxypropylcellulose) (HPC)

Measured: T/C

Cc1sc2ccc(Cl)cc2[n+]1CCC(=O)O
inactive: dose: 100.0 mg/kg/injection, schedule: Q04DX003 (ip), vehicle: saline with Tween-80 105 % of control | dose: 200.0 mg/kg/injection, schedule: Q04DX003 (ip), vehicle: saline with Tween-80 107 % of control | dose: 400.0 mg/kg/injection, schedule: Q04DX003 (ip), vehicle: saline with Tween-80 105 % of control

C=C(C)C12OC3(c4ccccc4)OC1C1C4OC4(CO)C(O)C4(O)C(=O)C(C)=CC4C1(O3)C(C)C2OC(=O)c1ccccc1 (centres undefined)
inactive: dose: 0.1 mg/kg/injection, schedule: Q01DX009 (ip), vehicle: saline with Tween-80 99 % of control | dose: 0.2 mg/kg/injection, schedule: Q01DX009 (ip), vehicle: saline with Tween-80 101 % of control | dose: 0.4 mg/kg/injection, schedule: Q01DX009 (ip), vehicle: saline with Tween-80 98 % of control

C[As](C)Sc1ncccn1
inactive: dose: 3.13 mg/kg/injection, schedule: Q01DX009 (ip), vehicle: Klucel (hydroxypropylcellulose) (HPC) 100 % of control | [1] 100 % of control

c1ccc(-c2nc3cnccc3o2)cc1
inactive: dose: 3.13 mg/kg/injection, schedule: Q04DX003 (ip), vehicle: Klucel (hydroxypropylcellulose) (HPC) 91 % of control | dose: 6.25 mg/kg/injection, schedule: Q04DX003 (ip), vehicle: Klucel (hydroxypropylcellulose) (HPC) 100 % of control | dose: 12.5 mg/kg/injection, schedule: Q04DX003 (ip), vehicle: Klucel (hydroxypropylcellulose) (HPC) 91 % of control and 97 % of control

CCOC(=O)C(=O)C(C#N)C(=O)OCC (centres undefined)
inactive: dose: 3.12 mg/kg/injection, schedule: Q01DX009 (ip), vehicle: Klucel (hydroxypropylcellulose) (HPC) 88 % of control | [1] 109 % of control | dose: 8.2 mg/kg/injection, schedule: Q01DX009 (ip), vehicle: Klucel (hydroxypropylcellulose) (HPC) 100 % of control | [2] 96 % of control and 100 % of control | dose: 18.0 mg/kg/injection, schedule: Q01DX009 (ip), vehicle: Klucel (hydroxypropylcellulose) (HPC) 96 % of control and 105 % of control

COCC(O)Cn1ccnc1[N+](=O)[O-] (centres undefined)
inactive: [3] 111 % of control | dose: 12.5 mg/kg/injection, schedule: Q01DX009 (ip), vehicle: suspension in saline 124 % of control | dose: 12.5 mg/kg/injection, schedule: Q01DX009 (ip), vehicle: water 95 % of control | [4] 105 % of control | dose: 25.0 mg/kg/injection, schedule: Q01DX009 (ip), vehicle: suspension in saline 124 % of control | dose: 25.0 mg/kg/injection, schedule: Q01DX009 (ip), vehicle: water 100 % of control | [5] 107 % of control | dose: 50.0 mg/kg/injection, schedule: Q01DX009 (ip), vehicle: suspension in saline 103 % of control | dose: 50.0 mg/kg/injection, schedule: Q01DX009 (ip), vehicle: water 111 % of control | [6] 101 % of control | dose: 100.0 mg/kg/injection, schedule: Q01DX009 (ip), vehicle: suspension in saline 110 % of control | dose: 100.0 mg/kg/injection, schedule: Q01DX009 (ip), vehicle: water 100 % of control | [7] 107 % of control | dose: 200.0 mg/kg/injection, schedule: Q01DX009 (ip), vehicle: suspension in saline 124 % of control | dose: 200.0 mg/kg/injection, schedule: Q01DX009 (ip), vehicle: water 103 % of control | [8] 104 % of control | dose: 400.0 mg/kg/injection, schedule: Q01DX009 (ip), vehicle: water 100 % of control

CC(=O)[O][Hg][c]1c(C)c(C)c(C)c(C)c1C
inactive: dose: 2.5 mg/kg/injection, schedule: Q01DX009 (ip), vehicle: Klucel (hydroxypropylcellulose) (HPC) 99 % of control | [9] 98 % of control | [10] 90 % of control | [2] 90 % of control

C=C1C(=O)C23[C@H](O)C1CC[C@H]2[C@]12COC3(O)[C@@H](O)[C@@H]1C(C)(C)CC[C@@H]2O
inactive: dose: 1.56 mg/kg/injection, schedule: Q01DX009 (ip), vehicle: saline with Tween-80 105 % of control | dose: 3.12 mg/kg/injection, schedule: Q01DX009 (ip), vehicle: saline with Tween-80 93 % of control | dose: 6.25 mg/kg/injection, schedule: Q01DX009 (ip), vehicle: saline with Tween-80 96 % of control

NCCS(=O)(=O)O
inactive: [6] 105 % of control | [7] 107 % of control | [8] 110 % of control | dose: 800.0 mg/kg/injection, schedule: Q01DX009 (ip), vehicle: saline 102 % of control

CCN1Cc2ccc(O)cc2C1
inactive: [4] 98 % of control | [5] 100 % of control | [6] 97 % of control

CCCCCCCCCCCCCCCCCN
inactive: [1] 103 % of control | [2] 100 % of control | dose: 25.0 mg/kg/injection, schedule: Q01DX009 (ip), vehicle: Klucel (hydroxypropylcellulose) (HPC) 93 % of control

CC(C)(C)OC(=O)NCCCC(NC(=O)OCc1ccccc1)C(=O)O (centres undefined)
inactive: [11] 101 % of control | [12] 96 % of control | dose: 200.0 mg/kg/injection, schedule: Q01DX009 (ip), vehicle: saline with Tween-80 96 % of control | dose: 400.0 mg/kg/injection, schedule: Q01DX009 (ip), vehicle: saline with Tween-80 86 % of control

COC1=C(C)C(=O)C2=C(C1=O)C(CO)N1C(C#N)C3CC4C(C1C2N1CCOC41)N3C (centres undefined)
inactive: dose: 0.25 mg/kg/injection, schedule: Q01DX009 (ip), vehicle: saline + alcohol 117 % of control | dose: 0.5 mg/kg/injection, schedule: Q01DX009 (ip), vehicle: saline + alcohol 117 % of control | dose: 1.0 mg/kg/injection, schedule: Q01DX009 (ip), vehicle: saline + alcohol 112 % of control

CNCCOc1ccccc1
inactive: dose: 25.0 mg/kg/injection, schedule: Q01DX009 (ip), vehicle: saline with Tween-80 110 % of control | [11] 101 % of control | [12] 101 % of control

O=[N+]([O-])O.[NH-]C1CCCCC1[NH-].[NH-]C1CCCCC1[NH-].[NH-]C1CCCCC1[NH-].[OH-].[OH-].[OH-].[Pt+4].[Pt+4].[Pt+4] (centres undefined)
inactive: dose: 0.25 mg/kg/injection, schedule: Q01DX009 (ip), vehicle: water 109 % of control and 119 % of control | dose: 0.5 mg/kg/injection, schedule: Q01DX009 (ip), vehicle: water 113 % of control and 123 % of control

CCN1C(=O)CC2(CCN(C)CC2)C1=O
inactive: dose: 0.78 mg/kg/injection, schedule: Q01DX009 (ip), vehicle: saline 122 % of control | dose: 1.56 mg/kg/injection, schedule: Q01DX009 (ip), vehicle: saline 117 % of control | dose: 3.12 mg/kg/injection, schedule: Q01DX009 (ip), vehicle: saline 103 % of control | dose: 6.25 mg/kg/injection, schedule: Q01DX009 (ip), vehicle: saline 108 % of control | [3] 108 % of control | [4] 102 % of control | [5] 98 % of control | [6] 96 % of control

Cc1ccc(CS)cc1
inactive: [13] 112 % of control | [14] 118 % of control

CCCCCCCCCCCC[S+](C)C
inactive: dose: 2.0 mg/kg/injection, schedule: Q01DX009 (ip), vehicle: saline sonified 89 % of control | dose: 4.0 mg/kg/injection, schedule: Q01DX009 (ip), vehicle: saline sonified 102 % of control | [9] 97 % of control | dose: 8.0 mg/kg/injection, schedule: Q01DX009 (ip), vehicle: saline sonified 107 % of control | [10] 100 % of control | dose: 16.0 mg/kg/injection, schedule: Q01DX009 (ip), vehicle: saline sonified 100 % of control | dose: 20.0 mg/kg/injection, schedule: Q01DX009 (ip), vehicle: Klucel (hydroxypropylcellulose) (HPC) 88 % of control

CC(C)(C)OC(=O)C(CSSCC(NC(=O)OCc1ccccc1)C(=O)OC(C)(C)C)NC(=O)OCc1ccccc1 (centres undefined)
inactive: dose: 75.0 mg/kg/injection, schedule: Q01DX009 (ip), vehicle: Klucel (hydroxypropylcellulose) (HPC) 94 % of control | dose: 150.0 mg/kg/injection, schedule: Q01DX009 (ip), vehicle: Klucel (hydroxypropylcellulose) (HPC) 100 % of control | dose: 300.0 mg/kg/injection, schedule: Q01DX009 (ip), vehicle: Klucel (hydroxypropylcellulose) (HPC) 88 % of control

O=C(Oc1cccc(OC(=O)c2ccc(Cl)cc2)c1)c1ccc(Cl)cc1
inactive: [13] 89 % of control | [14] 89 % of control
